According to patent publication US20100267682A1, “CORTICOSTEROIDS TO TREAT EPOTHILONE OR EPOTHILONE DERIVATIVE INDUCED DIARRHEA” (NOVARTIS AG, priority 2007, published 2010):
Where two headings read alike, the source gives them in different places. Marks after values point to notes of the source that are not given here.

Legend:
[1] = test system: BDix rats; assay: Patupilone-induced diarrhea scoring in BDix rats (grade 0-3, AUC days 3-7, days > G1); conditions: for Diarrhoea reduction (T/C) >G1D3-D6 / Diarrhoea reduction (T/C) AUCD3-D7: PAT 1.5 mg/kg i.v. D0, vs patupilone alone; for Diarrh: Days > G1: BDix rats with s.c. A15 glioma
Experimental: They are idendified by ear markings and kept in groups of 4 under normal conditions with access to food and water as libitum. Tumors: Rat glioma cells, A15 (aks 1a2r) are obtained from ECACC. […] Tumors are induced by concentrating 5×10^5 cells in 50 μl and injecting s.c. in the flank of the rats. […] Generally experiments begin when the tumors are >150 mm^3. Patupilone: Patupilone is weighed and dissolved in a vehicle of 30% PEG-300 and 70% normal saline to a final concentration of 1 mg/ml. Patupilone is injected i.v. in the tail vein as a bolus of 2-3 seconds at a dose of 1.5 mg/kg once. […] The suspension is sonicated for 30 min to achieve a milky suspension for oral administration (5 mL/kg).
Although prednisolone is administered orally daily, the dose and number of days of treatment are different in each experiment. The doses are 1, 3, 7 or 10 mg/kg which is roughly equivalent to 6, 17, 40 and 60 mg/m^2, respectively. When prednisolone and patupilone treatment are on the same day, prednisolone is administered 2-4 hours after treatment with patupilone.
Diarrhea: Diarrhea is monitored daily from day 3 post injection fo patupilone which is on day 0. Diarrhea is scored as follows:
Grade 1: soft but formed stool
Grade 2: soft unformed stool
Thus, each rat on each day of diarrhea (5 days from day […]) is graded 0-3 which allows a semi-quantitative analysis of the effects of different treatment. Two different abalytical methods are applied using a) area under the curve (AUCdays3-7) calculated using the trapezoidal rule as applied by Graphpad Prism (v. 4.0 for Windows) and b) the numbere of days in which diarrhea is graded >1. It is believed that the second approach is a more realistic comparison to the clinic since as described above G≦1 is not really diarrhea, and in the clinic, the major issue is avoiding severe diarrhea, i.e. clinical grades of ≧2.
(§1) After 10 days the rats are treated on day-0 once with patupilone (PAT) at 1.5 mg/kg i.v. bolus (G2, G4-G7) or PAT-vehicle (G1 & G3). All rats treated with prednisolone (Predn) received the drug p.o. at 7 mg/kg for 5 consecutive days (except G7 for 3 days only) either 1-day before (G4), on the same day (G7), 1-day after patupilone (G6) or 3-days after patupilone (G5).
Rats receive 7 mg/kg prednisolone (Predn) or the Predn-vehicle p.o. for 5 consecutive days (except G3 for 3 days) starting either on Day-0 (G1-G3) or after 24 hr (D+1) or 24 hr prior to PAT (D−1).

[2] = Experimental: They are idendified by ear markings and kept in groups of 4 under normal conditions with access to food and water as libitum. Tumors: Rat glioma cells, A15 (aks 1a2r) are obtained from ECACC. […] Tumors are induced by concentrating 5×10^5 cells in 50 μl and injecting s.c. in the flank of the rats. […] Generally experiments begin when the tumors are >150 mm^3. Patupilone: Patupilone is weighed and dissolved in a vehicle of 30% PEG-300 and 70% normal saline to a final concentration of 1 mg/ml. Patupilone is injected i.v. in the tail vein as a bolus of 2-3 seconds at a dose of 1.5 mg/kg once.
Efficacy and Tolerability: Tumor volume (Tvol) is quantified by change in tumor volume (endpoint vs. starting value in mm^3). As the T/CTVol, i.e. [ΔTVOldrug/ΔTVolvehicle]. The body weight of the rats is measured three times per week.
as §1, with “(G5). […]” for “(G5).”

[3] = test system: Rat glioma cells, A15; assay: BDix rat tumor model: s.c. A15 glioma tumour response; format: in vivo; conditions: for T/C Day-14: ΔTVol drug/ΔTVol vehicle
Description: As the T/CTVol, i.e. [ΔTVOldrug/ΔTVolvehicle].

[4] = Total PAT exposure (AUC) in blood, tissues and tumor of BDix rats; format: in vivo, rat; conditions: for AUC24-336 hr (total PAT exposure): Example 4, mean ± SD, n = 3, PAT 1.5 mg/kg i.v. day 0, G2 Predn-vehicle or G4 Predn 7 mg/kg p.o. 5 days (D-1)
Experimental: G4 received prednisolone (Predn) p.o. at 7 mg/kg for 5 consecutive days while G2 received Predn-vehicle only for 5 days.

[5] = test system: HRPC (hormone-refractory prostate cancer) patients; assay: Clinical trial in HRPC patients: patupilone-induced diarrhea; format: in vivo, human; conditions: 10 mg (ca. 5.5 mg/m^2) prednisone per day
Experimental: HRPC (hormone-refractory prostate cancer) patients in a clinical trial are getting 10 mg (ca. 5.5 mg/m^2) prednisone per day.

[6] = Example 1, Predn 1 mg/kg (6 mg/m^2) p.o. 7-days from D0
[7] = Example 1, Predn 3 mg/kg (17 mg/m^2) p.o. 7-days from D0
[8] = Example 1, Predn 10 mg/kg (60 mg/m^2) p.o. 7-days from D0
[9] = Example 2, Predn 3 mg/kg (17 mg/m^2) p.o. 7-days from D0
[10] = Example 2, Predn 10 mg/kg (60 mg/m^2) p.o. 7-days from DO
[11] = Example 3, Predn 7 mg/kg (40 mg/m^2) p.o. 3-days from D0
[12] = Example 3, Predn 7 mg/kg (40 mg/m^2) p.o. 5-days from D+1
[13] = Example 3, Predn 7 mg/kg (40 mg/m^2) p.o. 5-days from D−1
[14] = Example 3, Predn 7 mg/kg (40 mg/m^2) p.o. 7-days from D+3
[15] = Example 3 G3, Predn 7 mg/kg p.o. 5 days + PAT vehicle
[16] = Example 5, Predn 7 mg/kg (40 mg/m^2) p.o. 3-days from D0
[17] = Example 5, Predn 7 mg/kg (40 mg/m^2) p.o. 5-days from D0
[18] = Example 5, Predn 7 mg/kg (40 mg/m^2) p.o. 5-days from D+1
[19] = Example 5, Predn 7 mg/kg (40 mg/m^2) p.o. 5-days from D−1
[20] = Example 3 G3, BDix rats with s.c. A15 glioma, Predn 7 mg/kg p.o. 5 days + PAT vehicle
[21] = Example 1, BDix rats, PAT 1.5 mg/kg i.v. once + Predn vehicle p.o. 7 days
[22] = Example 3 G2, PAT 1.5 mg/kg i.v. day 0 + Predn vehicle
[23] = Example 5 G1, BDix rats, PAT 1.5 mg/kg i.v. Day 0 + Veh-Predn p.o. 5 days (D0)
[24] = Example 2, BDix rats with s.c. A15 glioma, PAT 1.5 mg/kg i.v. once + Predn vehicle p.o. 7 days
[25] = Example 3 G2, BDix rats with s.c. A15 glioma, PAT 1.5 mg/kg i.v. day 0 + Predn vehicle

**Q.** With `C[C@]12C=CC(=O)C=C1CC[C@@H]1[C@@H]2[C@@H](O)C[C@@]2(C)[C@H]1CC[C@]2(O)C(=O)CO` [Predn, prednisolone] as the compound, how does the “Effect on diarrhea caused by an efficacious dose of patupilone” value ([1]; BDix rats, summary of Examples 1-6) read?
**A.** able to reproducibly reduce diarrhea

**Q.** What about the “Diarrhoea reduction (T/C) >G1D3-D6” value [1, 6] of the same compound?
**A.** 0.81

**Q.** And the “Diarrhoea reduction (T/C) AUCD3-D7” value [1, 6]?
**A.** 0.85

**Q.** And the “Diarrhoea reduction (T/C) >G1D3-D6” value [1, 7]?
**A.** 0.13

**Q.** And the “Diarrhoea reduction (T/C) AUCD3-D7” value [1, 7]?
**A.** 0.30

**Q.** What about the “Diarrhoea reduction (T/C) >G1D3-D6” value [1, 8] of the same compound?
**A.** 0.06

**Q.** What about the “Diarrhoea reduction (T/C) AUCD3-D7” value [1, 8] of the same compound?
**A.** 0.20

**Q.** And the “Diarrhoea reduction (T/C) >G1D3-D6” value [1, 9]?
**A.** 0

**Q.** What about the “Diarrhoea reduction (T/C) AUCD3-D7” value [1, 9] of the same compound?
**A.** 0.14

**Q.** What about the “Diarrhoea reduction (T/C) >G1D3-D6” value [1, 10] of the same compound?
**A.** 0

**Q.** And the “Diarrhoea reduction (T/C) AUCD3-D7” value [1, 10]?
**A.** 0.01

**Q.** And the “Diarrhoea reduction (T/C) >G1D3-D6” value [1, 11]?
**A.** 0.57

**Q.** And the “Diarrhoea reduction (T/C) AUCD3-D7” value [1, 11]?
**A.** 0.60

**Q.** What about the “Diarrhoea reduction (T/C) >G1D3-D6” value [1, 12] of the same compound?
**A.** 0.52

**Q.** What about the “Diarrhoea reduction (T/C) AUCD3-D7” value [1, 12] of the same compound?
**A.** 0.57

**Q.** And the “Diarrhoea reduction (T/C) >G1D3-D6” value [1, 13]?
**A.** 0.65

**Q.** And the “Diarrhoea reduction (T/C) AUCD3-D7” value [1, 13]?
**A.** 0.61

**Q.** And the “Diarrhoea reduction (T/C) >G1D3-D6” value [1, 14]?
**A.** 0.57

**Q.** What about the “Diarrhoea reduction (T/C) AUCD3-D7” value [1, 14] of the same compound?
**A.** 0.75

**Q.** What about the “Diarrh: Days > G1” value [1, 15] of the same compound?
**A.** 0 days

**Q.** And the “Diarrhoea reduction (T/C) >G1D3-D6” value [1, 16]?
**A.** 0.08

**Q.** And the “Diarrhoea reduction (T/C) AUCD3-D7” value [1, 16]?
**A.** 0.11

**Q.** And the “Diarrhoea reduction (T/C) >G1D3-D6” value [1, 17]?
**A.** 0

**Q.** What about the “Diarrhoea reduction (T/C) AUCD3-D7” value [1, 17] of the same compound?
**A.** 0.03

**Q.** What about the “Diarrhoea reduction (T/C) >G1D3-D6” value [1, 18] of the same compound?
**A.** 0

**Q.** What about the “Diarrhoea reduction (T/C) AUCD3-D7” value [1, 18] of the same compound?
**A.** 0.17

**Q.** What about the “Diarrhoea reduction (T/C) >G1D3-D6” value [1, 19] of the same compound?
**A.** 0

**Q.** And the “Diarrhoea reduction (T/C) AUCD3-D7” value [1, 19]?
**A.** 0.18

**Q.** And the Survival [2, 20]?
**A.** 8/8

**Q.** And the “ΔTVol Day-14” value [3, 20]?
**A.** 728 ± 93

**Q.** And the “T/C Day-14” value [3, 15]?
**A.** 0.93

**Q.** What about the “Effect of prednisolone on patupilone exposure” value ([4]; BDix rats, summary) of the same compound?
**A.** no evidence that prednisolone interferred with significantly with patupilone exposure

**Q.** For `C[C@]12C=CC(=O)C=C1CC[C@@H]1[C@@H]2C(=O)C[C@@]2(C)[C@H]1CC[C@]2(O)C(=O)CO` [prednisone], which “Effect on epothilone B (patupilone)-induced diarrhea” value [5] is on record?
**A.** does not seem to have an effect

**Q.** For `C/C(=C\c1csc(C)n1)[C@@H]1C[C@@H]2O[C@]2(C)CCC[C@H](C)[C@H](O)[C@@H](C)C(=O)C(C)(C)[C@@H](O)CC(=O)O1` [PAT, epothilone B], which “Diarrhoea: Days > G1” value [1, 21] is on record?
**A.** 2.7 ± 0.2 days

**Q.** What about the “Diarrh: Days > G1” value ([1]; Example 2, PAT 1.5 mg/kg i.v. once + Predn vehicle p.o. 7 days) of the same compound?
**A.** 1.7 ± 0.3 days

**Q.** And the “Diarrh: Days > G1” value [1, 22]?
**A.** 2.9 ± 0.3 days

**Q.** What about the “Diarrhoea: Days > G1” value [1, 23] of the same compound?
**A.** 1.5 ± 0.3 days

**Q.** What about the “BW (g) Day-7” value [2, 21] of the same compound?
**A.** 150 ± 3 g

**Q.** And the Survival [2, 21]?
**A.** 6/6

**Q.** What about the “Δ% BW Day-7” value [2, 21] of the same compound?
**A.** −16.3 ± 1.3%

**Q.** And the “ΔBW (g) Day-7” value [2, 21]?
**A.** -29.5 ± 3.1 g

**Q.** What about the “BW (g) Day-6” value [2, 24] of the same compound?
**A.** 186 ± 3 g

**Q.** What about the Survival [2, 24] of the same compound?
**A.** 6/6

**Q.** And the “Δ% BW Day-13” value [2, 24]?
**A.** −4.1 ± 2.1%

**Q.** And the “BW (g) Day-14” value [2, 25]?
**A.** 179 ± 4 g

**Q.** What about the Survival [2, 25] of the same compound?
**A.** 8/8

**Q.** What about the “Δ% BW Day-7” value [2, 25] of the same compound?
**A.** −18.6 ± 1.3 %

**Q.** What about the “Δ% BW Day-14” value [2, 25] of the same compound?
**A.** −4.4 ± 1.8 %

**Q.** And the “BW (g) Day-7” value [2, 23]?
**A.** 163 ± 3 g

**Q.** What about the Survival [2, 23] of the same compound?
**A.** 8/8

**Q.** What about the “Δ% BW Day-7” value [2, 23] of the same compound?
**A.** −12.0 ± 1.2%

**Q.** What about the “Tumour Wt” value [3, 24] of the same compound?
**A.** 0.83 ± 0.17 g

**Q.** And the “ΔTVol Day-14” value [3, 25]?
**A.** 277 ± 37

**Q.** And the “T/C Day-14” value [3, 22]?
**A.** 0.35*

**Q.** And the “AUC24-336 hr (total PAT exposure)” value ([4]; Blood)?
**A.** 1891 ± 344 ng/h/mL

**Q.** What about the “AUC24-336 hr (total PAT exposure)” value ([4]; Brain) of the same compound?
**A.** 64948 ± 6237 ng/h/mL

**Q.** What about the “AUC24-336 hr (total PAT exposure)” value ([4]; Caecum) of the same compound?
**A.** 53911 ± 10512 ng/h/mL

**Q.** And the “AUC24-336 hr (total PAT exposure)” value ([4]; Jejunum)?
**A.** 57045 ± 3988 ng/h/mL

**Q.** What about the “AUC24-336 hr (total PAT exposure)” value ([4]; Liver) of the same compound?
**A.** 56278 ± 9988 ng/h/mL

**Q.** And the “AUC24-336 hr (total PAT exposure)” value ([4]; Tumor)?
**A.** 142437 ± 36429 ng/h/mL
